According to ChEMBL document CHEMBL5724914, “Linking interpersonal differences in gut microbiota composition and drug biotransformation activity” (2024):

Columns and labels:
[1] = (§1) The drug is tested on Z-028 corresponding to mouse gut metagenome with ENA study accession number: PRJEB37062 and ENA sample accession number: ERS12561827 for biotransformation under anaerobic condition. The drug concentrations were measured over 9 timepoints collected between 0 and 24 hours of incubation by liquid-chromatography-coupled mass spectrometry (LC–MS); conditions: 2 µM
[2] = as §1, with “WLS-350” for “Z-028”, “human” for “mouse”, “ERS12561789” for “ERS12561827”; conditions: 2 µM
[3] = as §1, with “Z-018” for “Z-028”, “pig” for “mouse”, “ERS12561817” for “ERS12561827”; conditions: 2 µM
[4] = as §1, with “Z-006” for “Z-028”, “ERS12561806” for “ERS12561827”; conditions: 2 µM
[5] = human gut metagenome, 24 h, 2 µM
[6] = as §1, with “Z-011” for “Z-028”, “ERS12561811” for “ERS12561827”; conditions: 2 µM
[7] = human gut metagenome, 24 h, 2 µM; remark: listed apart in the source
[8] = human gut metagenome, 24 h, 2 µM; remark: listed apart in the source
[9] = as §1, with “Z-013” for “Z-028”, “rabbit” for “mouse”, “ERS12561813” for “ERS12561827”; conditions: 2 µM
[10] = as §1, with “Z-010” for “Z-028”, “to” for “to mouse gut”, “ERS12561810” for “ERS12561827”; conditions: 2 µM
[11] = human gut metagenome, 24 h, 2 µM; remark: listed apart in the source
[12] = as §1, with “WLS-039” for “Z-028”, “human” for “mouse”, “ERS12561746” for “ERS12561827”; conditions: 2 µM
[13] = human gut metagenome, 24 h, 2 µM; remark: listed apart in the source
[14] = as §1, with “Z-023” for “Z-028”, “to” for “to mouse gut”, “ERS12561822” for “ERS12561827”; conditions: 2 µM
[15] = as §1, with “Z-001” for “Z-028”, “ERS12561801” for “ERS12561827”; conditions: 2 µM
[16] = human gut metagenome, 24 h, 2 µM; remark: listed apart in the source
[17] = as §1, with “WLS-077” for “Z-028”, “human” for “mouse”, “ERS12561750” for “ERS12561827”; conditions: 2 µM
[18] = as §1, with “WLS-240” for “Z-028”, “human” for “mouse”, “ERS12561773” for “ERS12561827”; conditions: 2 µM
[19] = human gut metagenome, 24 h, 2 µM; remark: listed apart in the source
[20] = as §1, with “Z-008” for “Z-028”, “to” for “to mouse gut”, “ERS12561808” for “ERS12561827”; conditions: 2 µM
Also: call rule not given here.

| SMILES | Bacterial Biotransformation [1] | Bacterial Biotransformation [2] | Bacterial Biotransformation [3] | Bacterial Biotransformation [4] | Bacterial Biotransformation [5] | Bacterial Biotransformation [6] | Bacterial Biotransformation [7] | Bacterial Biotransformation [8] | Bacterial Biotransformation [9] | Bacterial Biotransformation [10] | Bacterial Biotransformation [11] | Bacterial Biotransformation [12] | Bacterial Biotransformation [13] | Bacterial Biotransformation [14] | Bacterial Biotransformation [15] | Bacterial Biotransformation [16] | Bacterial Biotransformation [17] | Bacterial Biotransformation [18] | Bacterial Biotransformation [19] | Bacterial Biotransformation [20] |
| --- | --- | --- | --- | --- | --- | --- | --- | --- | --- | --- | --- | --- | --- | --- | --- | --- | --- | --- | --- | --- |
| Cc1cc(C)cc(OCC2CNC(=O)O2)c1 (stereo not given) [METAXALONE] | Compound NOT metabolized | Compound metabolized | Compound NOT metabolized | Compound NOT metabolized | Compound metabolized | Compound NOT metabolized | Compound metabolized | Compound metabolized | Compound NOT metabolized | Compound NOT metabolized | Compound metabolized | Compound metabolized | Compound NOT metabolized | Compound NOT metabolized | Compound NOT metabolized | Compound metabolized | Compound metabolized | Compound metabolized | Compound metabolized | Compound NOT metabolized |
| COC(=O)C(c1ccccc1)C1CCCCN1 (stereo not given) [METHYLPHENIDATE] | Compound NOT metabolized | Compound NOT metabolized | Compound metabolized | Compound NOT metabolized | Compound NOT metabolized | Compound NOT metabolized | Compound NOT metabolized | Compound NOT metabolized | Compound NOT metabolized | Compound NOT metabolized | Compound NOT metabolized | Compound NOT metabolized | Compound NOT metabolized | Compound metabolized | Compound metabolized | Compound NOT metabolized | Compound NOT metabolized | Compound metabolized | Compound metabolized | Compound NOT metabolized |
| CN1CCN2c3ccccc3Cc3ccccc3C2C1 (stereo not given) [MIANSERIN] | Compound NOT metabolized | Compound NOT metabolized | Compound metabolized | Compound NOT metabolized | Compound metabolized | Compound metabolized | Compound NOT metabolized | Compound NOT metabolized | Compound NOT metabolized | Compound metabolized | Compound NOT metabolized | Compound metabolized | Compound metabolized | Compound NOT metabolized | Compound NOT metabolized | Compound NOT metabolized | Compound NOT metabolized | Compound NOT metabolized | Compound metabolized | Compound NOT metabolized |
| CC#C[C@]1(O)CC[C@H]2[C@@H]3CCC4=CC(=O)CCC4=C3[C@@H](c3ccc(N(C)C)cc3)C[C@@]21C [MIFEPRISTONE] | Compound NOT metabolized | Compound NOT metabolized | Compound metabolized | Compound metabolized | Compound NOT metabolized | Compound metabolized | Compound NOT metabolized | Compound NOT metabolized | Compound metabolized | Compound metabolized | Compound metabolized | Compound NOT metabolized | Compound NOT metabolized | Compound NOT metabolized | Compound NOT metabolized | Compound NOT metabolized | Compound NOT metabolized | Compound metabolized | Compound metabolized | Compound metabolized |
| CC(C)(C)NCC(O)COc1cccc2c1CC(O)C(O)C2 (stereo not given) [NADOLOL] | Compound NOT metabolized | Compound metabolized | Compound NOT metabolized | Compound NOT metabolized | Compound NOT metabolized | Compound metabolized | Compound metabolized | Compound NOT metabolized | Compound NOT metabolized | Compound metabolized | Compound NOT metabolized | Compound NOT metabolized | Compound NOT metabolized | Compound NOT metabolized | Compound metabolized | Compound NOT metabolized | Compound metabolized | Compound metabolized | Compound metabolized | Compound NOT metabolized |
| CC(C)[C@H]1CC[C@H](C(=O)N[C@H](Cc2ccccc2)C(=O)O)CC1 [NATEGLINIDE] | Compound NOT metabolized | Compound metabolized | Compound metabolized | Compound NOT metabolized | Compound metabolized | Compound metabolized | Compound metabolized | Compound metabolized | Compound metabolized | Compound metabolized | Compound metabolized | Compound NOT metabolized | Compound metabolized | Compound metabolized | Compound NOT metabolized | Compound metabolized | Compound metabolized | Compound metabolized | Compound metabolized | Compound NOT metabolized |
| CN(C)C(=O)Oc1cccc([N+](C)(C)C)c1.[Br-] [NEOSTIGMINE BROMIDE] | Compound NOT metabolized | Compound NOT metabolized | Compound NOT metabolized | Compound NOT metabolized | Compound NOT metabolized | Compound NOT metabolized | Compound NOT metabolized | Compound NOT metabolized | Compound NOT metabolized | Compound NOT metabolized | Compound NOT metabolized | Compound NOT metabolized | Compound NOT metabolized | Compound NOT metabolized | Compound metabolized | Compound NOT metabolized | Compound NOT metabolized | Compound NOT metabolized | Compound NOT metabolized | Compound NOT metabolized |
| Cc1ccccc1C(OCCN(C)C)c1ccccc1.O=C(O)CC(O)(CC(=O)O)C(=O)O (stereo not given) [ORPHENADRINE CITRATE] | Compound NOT metabolized | Compound NOT metabolized | Compound metabolized | Compound NOT metabolized | Compound NOT metabolized | Compound NOT metabolized | Compound NOT metabolized | Compound metabolized | Compound NOT metabolized | Compound NOT metabolized | Compound NOT metabolized | Compound metabolized | Compound metabolized | Compound metabolized | Compound metabolized | Compound NOT metabolized | Compound NOT metabolized | Compound NOT metabolized | Compound NOT metabolized | Compound NOT metabolized |
